Measured values as given in patent US11471436B2, “Dihydronaphthalene derivative” (ONO PHARMACEUTICAL CO., LTD., priority 2014, dated 2022).

Legend:
human S1P1 (EDG-1) [1] = target: T1, human S1P1 (EDG-1) (Homo sapiens, UniProt P21453); assay: Inhibition of binding of [33P]-S1P to S1P1, CHO membrane fractions; conditions: [33P]-S1P binding, membrane fractions of CHO cells overexpressing human S1P1
Procedure: (§1) Measurement of the Inhibitory Action of the Compound of the Present Invention on Binding of [^33P]-S1P to S1P5 (EDG-8)
(§2) A reaction was carried out in a 96-well microplate by using membrane fractions of Chinese hamster ovary (CHO) cells each of which was made to overexpress human S1P1 (EDG-1) or human S1P5 gene respectively, in an amount of the membrane fraction of 1 mg protein/mL. To each of the wells, 100 μL of a vehicle (DMSO) solution or a ligand solution at a two-fold concentration diluted with Binding Buffer (50 mmol/L, Tris pH 7.5, 5 mmol/L, MgCl2, 0.5% BSA and Complete EDTA free (1 tablet/50 mL)) and […] of 0.16 nmol/L [^33P]-S1P (manufactured by American Radiolabeled Chemicals, Inc.) diluted with Binding Buffer were added, and thereafter, each of membrane fraction solutions (50 μL) was added and the reaction was carried out at room temperature for 60 minutes. After the reaction, suction filtration was carried out by using a 96-well UNIFILTER, and the 96-well microplate was washed with Wash Buffer (50 mmol/L, Tris pH 7.5, 0.5% BSA) (150 mL), and thereafter, was dried at 60° C. for 45 minutes. MicroScint (trade name) 20 (50 μL/well) was added and the plate was covered with TopSeal-A, and thereafter, the radioactivity was measured by using TopCount (manufactured by PerkinElmer Inc.).

human S1P5 (EDG-8) [2] = target: T2, human S1P5 (EDG-8) (Homo sapiens, UniProt Q9H228); assay: Inhibition of binding of [33P]-S1P to S1P5, CHO membrane fractions; conditions: for IC50: [33P]-S1P binding, membrane fractions of CHO cells overexpressing human S1P5
Procedure: as §1, §2

human S1P1 (EDG-1) [3] = target: T1, human S1P1 (EDG-1); assay: S1P receptor agonist activity by monitoring intracellular cyclic AMP, CHO cells overexpressing S1P1; assay type: cell-based; conditions: forskolin-stimulated CHO cells overexpressing human S1P1, read-out: EC 50 value with regard to S1P1 receptor
Procedure: (§3) Evaluation of S1P Receptor Agonist Activities of the Compound of the Present Invention by Monitoring the Concentration of Produced Intracellular Cyclic AMP
(§4) CHO cells which were made to overexpress either human S1P1 (EDG-1) or human S1P5 (EDG-8) gene respectively were cultured in Ham's F12 Medium (manufactured by Gibco-BRL) containing 10% FBS (fetal bovine serum), penicillin/streptomycin and geneticin (0.25 mg/mL). The medium was removed from the cultured cells, the cultured cells were washed once with phosphate-buffered saline, and the cultured cells were treated with a vehicle (DMSO) solution or a compound solution each of which was diluted with Buffer (Hanks' balanced salt solution containing 20 mmol/L HEPES, 0.1 or 0.2% BSA, 1 mmol/L IBMX and 50 μmol/L forskolin) at 37° C. for 30 minutes. Thereafter, the cultured cells were washed once with phosphate-buffered saline. After lysing the cells, the concentration of cyclic AMP in the cell lysate were measured by using cAMP Assay Kit (GE Healthcare).

human S1P5 (EDG-8) [4] = target: T2, human S1P5 (EDG-8); assay: S1P receptor agonist activity by monitoring intracellular cyclic AMP, CHO cells overexpressing S1P5; assay type: cell-based; conditions: forskolin-stimulated CHO cells overexpressing human S1P5, read-out: EC 50 value with regard to S1P5 receptor
Procedure: as §3, §4

T1 sequence (P21453 whole entry): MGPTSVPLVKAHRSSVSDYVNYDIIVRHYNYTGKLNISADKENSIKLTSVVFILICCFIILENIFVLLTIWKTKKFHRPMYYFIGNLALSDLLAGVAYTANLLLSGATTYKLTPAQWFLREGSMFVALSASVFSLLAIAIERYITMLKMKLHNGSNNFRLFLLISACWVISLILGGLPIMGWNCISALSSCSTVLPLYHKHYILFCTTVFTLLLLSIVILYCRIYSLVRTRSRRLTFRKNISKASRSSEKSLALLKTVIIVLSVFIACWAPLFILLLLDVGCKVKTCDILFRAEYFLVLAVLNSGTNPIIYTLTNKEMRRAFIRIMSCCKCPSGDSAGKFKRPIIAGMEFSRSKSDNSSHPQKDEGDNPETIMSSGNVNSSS
T2 sequence (Q9H228 whole entry): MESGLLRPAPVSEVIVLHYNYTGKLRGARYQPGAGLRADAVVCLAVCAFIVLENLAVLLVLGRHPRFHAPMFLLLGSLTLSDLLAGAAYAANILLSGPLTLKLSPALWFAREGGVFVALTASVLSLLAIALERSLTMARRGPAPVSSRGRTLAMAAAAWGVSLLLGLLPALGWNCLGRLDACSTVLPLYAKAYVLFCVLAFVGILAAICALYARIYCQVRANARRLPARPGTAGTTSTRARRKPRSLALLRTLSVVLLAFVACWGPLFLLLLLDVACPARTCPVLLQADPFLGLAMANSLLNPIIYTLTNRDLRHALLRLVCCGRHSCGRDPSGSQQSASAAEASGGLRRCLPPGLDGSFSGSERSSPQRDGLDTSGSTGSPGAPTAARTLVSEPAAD

| Compound | IC50 (human S1P1 (EDG-1) [1]) [nM] | IC50 (human S1P5 (EDG-8) [2]) [nM] | balance of an S1P5 receptor agonist activity against an S1P1 receptor agonist activity (human S1P5 (EDG-8) [2]; conclusion in words from binding IC50 values S1P1 vs S1P5) | EC50 (human S1P1 (EDG-1) [3]) [nM] | EC50 (human S1P5 (EDG-8) [4]) [nM] |
| --- | --- | --- | --- | --- | --- |
| CCCCc1ccc(Oc2ccc3c(c2)CCC(CN2CC(C(=O)O)C2)=C3C)cc1.Cl [Comparative Compound A, 1-{[6-(4-butylphenoxy)-1-methyl-3,4-dihydronaphthalen-2-yl]methyl}azetidine-3-carboxylic acid hydrochloride, reference compound] | 475 | 76 | had both S1P1 and S1P5 receptor agonist activities |  |  |
| O=C(O)C1CN(CC2=Cc3ccc(OC4CCCCC4)cc3CC2)C1 [Example 9 (2), 1-{[6-(Cyclohexyloxy)-3,4-dihydro-2-naphthalenyl]methyl}-3-azetidinecarboxylic acid] | > 10000 | 57.2 |  |  |  |
| CC1=C(CN2CC(C(=O)O)C2)CCc2cc(-c3ccccc3)ccc21 [Example 14 (1), 1-[(1-Methyl-6-phenyl-3,4-dihydro-2-naphthalenyl)methyl]-3-azetidinecarboxylic acid] | > 10000 | 22.4 |  |  |  |
| CC1=C(CN2CC(C(=O)O)C2)CCc2cc(-c3ccccn3)ccc21 [Example 14 (3), 1-{[1-Methyl-6-(2-pyridinyl)-3,4-dihydro-2-naphthalenyl]methyl}-3-azetidinecarboxylic acid] | > 10000 | 67.2 |  |  |  |
| CC1Cc2cc(OC3CCCCC3)ccc2C=C1CN1CC(C(=O)O)C1 (stereo not shown) [Example 21, 1-{[6-(Cyclohexyloxy)-3-methyl-3,4-dihydro-2-naphthalenyl]methyl}-3-azetidinecarboxylic acid] | > 10000 | 16 |  | 9990 | 0.2 |
